Test results published in PubChem BioAssay (NCI).
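Assay format: 96-well plates, 48-hour exposure. Abbreviation: GI50, concentration required for 50% inhibition of growth. At the TGI there is no net growth.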

What was measured:
Assay in all cases: NCI anticancer screen, dose series, 48 h
[1] = test system: EKVX NSCLC
[2] = test system: HCT-116 colon
[3] = test system: HS 578T breast
[4] = test system: LOX IMVI melanoma
[5] = test system: MDA-MB-435
[6] = test system: OVCAR-3 ovarian
[7] = test system: PC-3 prostate
[8] = test system: SK-MEL-5 melanoma
[9] = test system: T-47D breast
[10] = test system: SNB-75 CNS

SMILES | TGI [1] [µM] | TGI [2] [µM] | TGI [3] [µM] | TGI [4] [µM] | TGI [5] [µM] | TGI [6] [µM] | TGI [7] [µM] | TGI [8] [µM] | TGI [9] [µM] | TGI [10] [µM] | GI50 [1] [nM] | GI50 [2] [pM] | GI50 [6] [nM] | GI50 [8] [nM]
N#Cc1c(N)nc2n[nH]c(N)c2c1-c1ccc(Cl)cc1 | 44 | > 100 | 8.64 | 16.9 | > 74.4 | 18.2 | 16.7 | > 81.1 | 4.62 | – | – | – | – | –
NCc1ccccc1-c1c2nc(c(-c3ccccc3CN)c3ccc([nH]3)c(-c3ccccc3CN)c3nc(c(-c4ccccc4CN)c4ccc1[nH]4)C=C3)C=C2 | 48.7 | 32.5 | – | 56.3 | – | 39.2 | – | 63.7 | – | 24.7 | – | – | – | –
CC1CCC(C(C)C)C(OC(=O)NCn2cc(-c3ccccc3)nn2)C1 (stereo unspecified) | > 100 | > 100 | – | > 100 | – | – | > 100 | > 100 | – | 86 | – | – | – | –
CC1(CCOCc2ccccc2)NC(=O)NC1=O (stereo unspecified) | > 100 | > 100 | > 100 | > 100 | > 100 | > 100 | > 100 | > 100 | – | – | – | – | – | –
CN(C)C1(N(C)C)Oc2c(c(=O)n(C)c(=O)n2C)C(c2ccccc2)C1(F)F (stereo unspecified) | > 100 | > 100 | – | > 100 | > 100 | > 100 | > 100 | > 100 | > 100 | > 100 | – | – | – | –
COC(=O)/C=C(\C)CC(O)/C=C(\C)CCC=C(C)C (stereo unspecified) | > 100 | > 100 | > 100 | > 100 | – | 87.7 | > 100 | 42.7 | – | 57.1 | – | – | – | –
CCC(/C=C/C1OC(=O)C=CC1C)=C\C(C)C/C=C/C(C)=C/C(C)C(=O)C(C)C(O)C(C)C/C(C)=C/C(=O)O (stereo unspecified) | 11.4 | – | 0.000594 | 0.00119 | 2.64e-05 | – | – | – | – | 7.17 | 1290 | < 1 | 0.0145 | 408
CCOC(=O)CN1C(=O)c2ccc(NC(=O)C(=O)O)cc2S1(=O)=O | > 100 | > 100 | > 100 | > 100 | > 100 | – | > 100 | > 100 | > 100 | – | – | – | – | –
COC(=O)c1cc2ccc(N)nc2[nH]c1=O | > 100 | > 100 | – | > 100 | > 100 | > 100 | > 100 | > 100 | > 100 | > 100 | – | – | – | –
CC(O)C1(CNc2cc(Cl)nc(N)n2)CCC1 (stereo unspecified) | > 100 | > 100 | > 100 | > 100 | > 100 | > 100 | > 100 | > 100 | > 100 | – | – | – | – | –
CC(OC(C)(C)C)[C@H](NC(=O)OCC(Cl)(Cl)Cl)C(=O)O (stereo partly specified) | > 100 | > 100 | – | – | – | > 100 | – | > 100 | – | > 100 | – | – | – | –
COC(CNC(=O)C(C)NC(=O)/C=C/c1ccccc1)OC (stereo unspecified) | > 100 | > 100 | > 100 | – | > 100 | – | > 100 | > 100 | > 100 | > 100 | – | – | – | –
O=c1cnn(C/C=C/CO)c(=O)[nH]1 | > 100 | – | > 100 | 86 | > 100 | > 100 | > 100 | > 100 | > 100 | > 100 | – | – | – | –
Cc1cc(S(=O)(=O)Nc2n[nH]c(N)n2)c(SCC(=O)O)cc1Cl | > 10 | > 10 | > 10 | > 10 | – | > 10 | > 10 | > 10 | > 10 | > 10 | – | – | – | –
CSc1nc(Nc2cccc(C(F)(F)F)c2)c2c(N)nn(C)c2n1 | – | > 100 | > 100 | > 100 | > 100 | > 100 | > 100 | > 100 | > 100 | > 100 | – | – | – | –
CC(C)(C)OC(=O)[C@H]1CCC(=S)N1Cc1ccccc1 | > 100 | > 100 | – | > 100 | > 100 | > 100 | > 100 | > 100 | – | > 100 | – | – | – | –
CCCCNC(=S)Nc1nc(C(=O)NNC(=S)Nc2ccccc2)cs1 | > 100 | > 100 | – | – | > 100 | > 100 | > 100 | > 100 | > 100 | 91.1 | – | – | – | –
N#Cc1c(N)n(-c2cccc(C(=O)O)c2)c(=O)c2cc([N+](=O)[O-])ccc12 | – | > 100 | > 100 | > 100 | > 100 | – | > 100 | > 100 | > 100 | > 100 | – | – | – | –
OC1C#CCSCC#C/C=C\1 (stereo unspecified) | > 100 | > 100 | > 100 | > 100 | > 100 | > 100 | > 100 | – | – | > 100 | – | – | – | –
CC12CC(c3ccccc3O1)C(C(=O)Nc1ccc(Cl)cc1Cl)C(=O)N2 (stereo unspecified) | 50.2 | > 100 | 47.7 | 49.5 | > 100 | > 100 | > 100 | > 100 | 70.9 | – | – | – | – | –
Oc1[nH]c2ccccc2c1N=NC(=S)Nc1cccc(Cl)c1 | > 100 | 17.3 | > 100 | 33.4 | 99.4 | > 100 | > 100 | 18.8 | > 100 | – | – | – | – | –
O=C(/C=C/c1cc2ccccc2o1)N1CCN(c2ccccn2)CC1 | > 100 | > 100 | > 100 | > 100 | > 100 | > 100 | > 100 | > 100 | > 100 | – | – | – | – | –
Cn1ccc(C(=O)NCCN(CCNC(=O)c2ccn(C)c(=O)c2O)CCNC(=O)c2cccc(=O)n2O)c(O)c1=O | – | > 100 | > 100 | > 100 | > 100 | > 100 | > 100 | > 100 | > 100 | > 100 | – | – | – | –
O=[N+]([O-])c1ccc2c(c1)C1=C(CO2)Cc2ccccc2O1 | > 100 | 30 | – | 30.2 | 80.5 | 41.6 | 38.6 | 29.7 | > 100 | > 100 | – | – | – | –
O=C(O)[C@@H]1CCS(=O)(=O)N1 | > 100 | > 100 | – | > 100 | > 100 | > 100 | > 100 | > 100 | > 100 | – | – | – | – | –
